The text below walks through data of patent US20070009455A1 (priority 2003, published 2007).

One assay relates to tyrosinase. Description: Tyrosinase inhibitory activity test. In kind it is biochemical. As for the experimental part: Tyrosine used as a substrate in main processes of melanin biosynthesis, mushroom tyrosinase, or tyrosinase fragments separated from melanocytes was added to test samples and incubated for a predetermined time. The absorbance of dopachrome that was a reaction product was measured at an absorption wavelength to evaluate the whitening effects of the test samples. Tyrosinase inhibitory activity (%)=100−((ODexp−ODcon)/ODstd×100)
ODexp: Absorbance of test sample containing tyrosinase
ODcon: Absorbance of test sample containing no tyrosinase
ODstd: Absorbance of standard sample containing tyrosinase

A further assay deals with Human skin melanocytes. The assay is described as follows: Whitening activity test: melanin production in skin melanocytes. In kind it is cell-based. The note with it: for Melanin production inhibitory activity (%): concentration of each test sample: 0.02%. As for the experimental part:
The whitening activity test based on […] of skin melanocytes was performed as the following method: • 1. Human skin melanocytes in MGM (Melanocyte Growth Media, Clonetics) media were incubated at a 5% CO2 incubator at 37° C. • 2. A predetermined number of cells (2×10^6) were cultured in75T culture flasks. When cell confluence was identified, test samples of a predetermined concentration were loaded in the cell cultures and incubated for 2-3 days. • 3. The cultures were removed, washed with phosphate buffered saline (PBS), and treated with trypsin solution, to harvest cells. • 4. The harvested cells were centrifuged to obtain cell pellets.
The colors of the cell pellets were observed. The cell pellets were dissolved in 1N NaOH and the absorbance was measured at 475 nm. • 5. The concentration of melanin was calculated by using absorbance values obtained from melanin standard and then converted to the concentration of melanin/the total protein concentration of melanocytes. […]=[(A−B)/A]×100
A: concentration of melain/concentration of protein in control
(control: melanocytes normally grown in a culture medium containing no test samples)
B: concentration of melain/concentration of protein in each test sample
To evaluate whitening activity, inhibitory activity of the compositions of Examples 7 and Comparative Examples 6-8 against melanin production in melanocytes of healthy persons were measured and the results are summarized in Table 13 below.

A short description of assay [1]: Free radical scavenging activity test (DPPH). As for the experimental part: When methanol solutions of test samples were converted to clear solutions due to scavenging of relatively stable deep blue-colored DPPH(1,1-diphenyl-2-hydrazyl) radicals, the degree of reduction of the absorbance of the methanol solutions was measured at 516 nm. Free radical scavenging activity (%)=100−( (ODexp−ODcon)/ODstd×100)
ODexp: Absorbance of test sample containing DPPH
ODcon: Absorbance of test sample containing no DPPH
ODstd: Absorbance of standard sample containing DPPH

The structures appear in SMILES notation. Converted amounts (≈) assume the structure as drawn.

Consider `O=c1cc(CO)occ1O` [Cojic acid], for which the “Tyrosinase inhibitory activity (in words)” value in the assay with tyrosinase was “excellent tyrosinase inhibitory activity”. In addition, the “Melanin production inhibitory activity (%)” value in the assay on Human skin melanocytes turned out to be 22.62%.
On to `Oc1ccc(/C=C/c2cc(O)cc(O)c2)cc1` [Resveratrol], for which, at tyrosinase, the “IC50: 50% tyrosinase activity inhibition concentration” value was 2 µg/mL (≈ 8.76 µM) and the “Tyrosinase inhibitory activity (in words)” value is “excellent tyrosinase inhibitory activity”. Moreover, the “Inhibitory activity of melanin production (in words)” value with Human skin melanocytes (0.02%) is recorded as “excellent inhibitory activity of melanin production”. Moreover, the “Melanin production inhibitory activity (%)” value in the assay on Human skin melanocytes amounted to 53.17%.
On to `OC[C@H]1O[C@@H](Oc2ccc(O)cc2)[C@H](O)[C@@H](O)[C@@H]1O` [Albutin], for which, in the assay on Human skin melanocytes, the “Melanin production inhibitory activity (%)” value is 2.00%.
Turning to `O=C1O[C@H]([C@@H](O)CO)C(O)=C1O` [Vitamin C], in assay [1], the “Free radical scavenging (in words)” value is listed as “effective free radical scavengers”. In the assay on Human skin melanocytes, the “Melanin production inhibitory activity (%)” value was 19.72%.
